Source: patent publication US4971965A, “Antibiotics TAN-1057” (Takeda Chemical Industries, Ltd., priority 1988, dated 1990)
≈ marks a conversion by molar mass, not a printed value. Like-named read-outs stand apart in the source and are kept apart here.

Tests used:
[1] = system: Acinetobacter calcoaceticus IFO 13006; test: Antibacterial activity (broth dilution MIC, Table 1); type: cell-based
Description: (§1) The biological activities of TAN-1057 are described as follows.
(§2) (Note 1) Measurement was conducted by employing a medium consisting of
(§3) Bacto Antibiotic Medium 3 (Difco Laboratories, USA)(17.5 g), Bacto yeast
(§4) extract(Difco Laboratories, USA)(5.0 g) and distilled water(pH
(§5) […])(1000 ml), using approximately 10^5 colony forming unit/ml
(§6) of inoculum, by means of the broth dilution method.

Aeromonas caviae NCW = test: as above; type: cell-based
Description: as §1, §2, §3, §4, §5, §6

Bacillus cereus FDA 5 = test: as above; type: cell-based
Description: as §1, §2, §3, §4, §5, §6

[2] = system: Bacillus megaterium IFO 12108; test: as above; type: cell-based; details: Priestia megaterium
Description: as §1, §2, §3, §4, §5, §6

Escherichia coli LD-2 = test: as above; type: cell-based
Description: as §1, §2, §3, §4, §5, §6

[3] = system: Escherichia coli NIHJ JC 2; test: as above; type: cell-based
Description: as §1, §2, §3, §4, §5, §6

[4] = system: Klebsiella pnemoniae IFO 3317; test: as above; type: cell-based
Description: as §1, §2, §3, §4, §5, §6

[5] = system: Micrococcus luteus IFO 12708; test: as above; type: cell-based
Description: as §1, §2, §3, §4, §5, §6

[6] = system: Proteus vulgaris IFO 3988; test: as above; type: cell-based
Description: as §1, §2, §3, §4, §5, §6

[7] = system: Salmonella typhimurium IFO 12529; test: as above; type: cell-based; details: Salmonella enterica
Description: as §1, §2, §3, §4, §5, §6

[8] = system: Staphylococcus aureus FDA 209P; test: as above; type: cell-based; details: FDA209P
Description: as §1, §2, §3, §4, §5, §6

[9] = system: Staphylococcus epidermidis IFO 3762; test: as above; type: cell-based
Description: as §1, §2, §3, §4, §5, §6

[10] = system: Streptococcus faecalis IFO 3989; test: as above; type: cell-based; details: Enterococcus faecalis
Description: as §1, §2, §3, §4, §5, §6

[11] = system: Staphylococcus aureus C10; test: Antibacterial activity against clinically isolated S. aureus (agar dilution MIC, Table 2); type: cell-based; details: Staphylococcus aureus; strain C10; agar dilution; Mueller Hinton medium; 10^6 CFU/ml; read-out: MIC
Description: (§7) DMPPC: Methicillin, KM: Kanamycin, GM: Gentamycin, EM: Erythromycin (Note
(§8) Determined by the agar dilution method. Medium: Mueller Hinton medium
(§9) (Difco, USA) Inoculum Size: 10^6 CFU/ml, 37° C.

[12] = system: Staphylococcus aureus FDA 209P; test: as above; type: cell-based; details: Staphylococcus aureus, FDA209P; strain FDA 209P; agar dilution; Mueller Hinton medium; 10^6 CFU/ml; read-out: MIC
Description: as §7, §8, §9

[13] = system: Staphylococcus aureus N176-3; test: as above; type: cell-based; details: Staphylococcus aureus, N1763; strain N176-3; agar dilution; Mueller Hinton medium; 10^6 CFU/ml; read-out: MIC
Description: as §7, §8, §9

[14] = system: Staphylococcus aureus N237; test: as above; type: cell-based; details: Staphylococcus aureus; strain N237; agar dilution; Mueller Hinton medium; 10^6 CFU/ml; read-out: MIC
Description: as §7, §8, §9

[15] = system: Staphylococcus aureus N247-21; test: as above; type: cell-based; details: Staphylococcus aureus, N24721; strain N247-21; agar dilution; Mueller Hinton medium; 10^6 CFU/ml; read-out: MIC
Description: as §7, §8, §9

[16] = system: Staphylococcus aureus N262; test: as above; type: cell-based; details: Staphylococcus aureus; strain N262; agar dilution; Mueller Hinton medium; 10^6 CFU/ml; read-out: MIC
Description: as §7, §8, §9

[17] = system: Staphylococcus aureus N326; test: as above; type: cell-based; details: Staphylococcus aureus; strain N326; agar dilution; Mueller Hinton medium; 10^6 CFU/ml; read-out: MIC
Description: as §7, §8, §9

[18] = system: Eubacterium sp. biurens 515; test: MIC against anaerobic bacteria (Table 3); type: cell-based; details: 10^6 CFU/ml, GAM medium, Gas Pack, 37° C., 18 hours
Description: (§10) Inoculum size: 10^6 CFU/ml
(§11) ^Note 1 GAM medium(Nissui),
(§12) Gas Pack (BBL), 37° C., 18 hours

[19] = system: Fusobacterium necroform VPI 2891; test: MIC against anaerobic bacteria (Table 3); type: cell-based; details: VPI2891, 10^6 CFU/ml, GAM medium, Gas Pack, 37° C., 18 hours
Description: as §10, §11, §12

[20] = system: Lactobacillus acidophilus ATCC 4356; test: MIC against anaerobic bacteria (Table 3); type: cell-based; details: ATCC4356, 10^6 CFU/ml, GAM medium, Gas Pack, 37° C., 18 hours
Description: as §10, §11, §12

Mycoplasma pulmonis M-53 = test: MIC against Mycoplasma (Table 3); details: M53, 120 h
[21] = system: Treponema hyodicenterie DJ70PI; test: MIC against Spirochaeta (Table 3); details: 48 h
[22] = pH 7, read-out: Minimum Inhibitory Conc. (MIC)
[23] = pH 9, broth dilution, read-out: Minimum Inhibitory Conc. (MIC)

Work on `CN(C(=O)C[C@@H](N)CCCNC(=N)N)[C@H]1CNC(NC(N)=O)=NC1=O` [TAN-1057A] yielded an MIC ([1]; IFO13006, pH 5, broth dilution, read-out: Minimum Inhibitory Conc. (MIC)) of 1.56 µg/mL (≈ 4.39 µM), an MIC ([1]; IFO13006, pH 7, read-out: Minimum Inhibitory Conc. (MIC)) of 6.25 µg/mL (≈ 17.6 µM) and an MIC ([1]; IFO13006, pH 9, broth dilution, read-out: Minimum Inhibitory Conc. (MIC)) of 1.56 µg/mL (≈ 4.39 µM). The MIC (Aeromonas caviae NCW; pH 5, broth dilution, read-out: Minimum Inhibitory Conc. (MIC)) was 100 µg/mL (≈ 281 µM), the MIC (Aeromonas caviae NCW; [22]) was 6.25 µg/mL (≈ 17.6 µM) and the MIC (Aeromonas caviae NCW; [23]) was 1.56 µg/mL (≈ 4.39 µM). For the same compound, the MIC (Bacillus cereus FDA 5; FDA5, pH 5, read-out: Minimum Inhibitory Conc. (MIC)) was 6.25 µg/mL (≈ 17.6 µM), the MIC (Bacillus cereus FDA 5; FDA5, pH 7, broth dilution, read-out: Minimum Inhibitory Conc. (MIC)) was 25 µg/mL (≈ 70.3 µM) and the MIC (Bacillus cereus FDA 5; FDA5, pH 9, read-out: Minimum Inhibitory Conc. (MIC)) was 3.13 µg/mL (≈ 8.81 µM). It also gave an MIC ([2]; IFO12108, pH 7, read-out: Minimum Inhibitory Conc. (MIC)) of 12.5 µg/mL (≈ 35.2 µM), an MIC ([2]; IFO12108, pH 5, broth dilution, read-out: Minimum Inhibitory Conc. (MIC)) of 25 µg/mL (≈ 70.3 µM) and an MIC ([2]; IFO12108, pH 9, broth dilution, read-out: Minimum Inhibitory Conc. (MIC)) of 1.56 µg/mL (≈ 4.39 µM). The MIC (Escherichia coli LD-2; LD2, pH 5, read-out: Minimum Inhibitory Conc. (MIC)) was 100 µg/mL (≈ 281 µM), the MIC (Escherichia coli LD-2; LD2, pH 7, read-out: Minimum Inhibitory Conc. (MIC)) was 25 µg/mL (≈ 70.3 µM) and the MIC (Escherichia coli LD-2; LD2, pH 9, read-out: Minimum Inhibitory Conc. (MIC)) was 1.56 µg/mL (≈ 4.39 µM). For the same compound, the MIC ([3]; NIHJJC2, pH 5, read-out: Minimum Inhibitory Conc. (MIC)) was > 100 µg/mL, the MIC ([3]; NIHJJC2, pH 7, read-out: Minimum Inhibitory Conc. (MIC)) was > 100 µg/mL and the MIC ([3]; NIHJJC2, pH 9, read-out: Minimum Inhibitory Conc. (MIC)) was 25 µg/mL (≈ 70.3 µM). The MIC ([4]; IFO3317, pH 5, read-out: Minimum Inhibitory Conc. (MIC)) was > 100 µg/mL, the MIC ([4]; IFO3317, pH 7, read-out: Minimum Inhibitory Conc. (MIC)) was > 100 µg/mL and the MIC ([4]; IFO3317, pH 9, read-out: Minimum Inhibitory Conc. (MIC)) was 100 µg/mL (≈ 281 µM). For the same compound, the MIC ([5]; IFO12708, pH 7, read-out: Minimum Inhibitory Conc. (MIC)) was 1.56 µg/mL (≈ 4.39 µM), the MIC ([5]; IFO12708, pH 9, read-out: Minimum Inhibitory Conc. (MIC)) was 0.2 µg/mL (≈ 0.563 µM) and the MIC ([6]; IFO3988, pH 5, read-out: Minimum Inhibitory Conc. (MIC)) was > 100 µg/mL. The MIC ([6]; IFO3988, pH 7, read-out: Minimum Inhibitory Conc. (MIC)) was > 100 µg/mL, the MIC ([6]; IFO3988, pH 9, read-out: Minimum Inhibitory Conc. (MIC)) was 50 µg/mL (≈ 141 µM) and the MIC ([7]; pH 5, read-out: Minimum Inhibitory Conc. (MIC)) was > 100 µg/mL. The MIC [7, 22] was > 100 µg/mL, the MIC ([7]; pH 9, read-out: Minimum Inhibitory Conc. (MIC)) was 25 µg/mL (≈ 70.3 µM) and the MIC [8, 22] was 3.13 µg/mL (≈ 8.81 µM). For the same compound, the MIC [8, 23] was < 0.1 µg/mL, the MIC ([9]; IFO3762, pH 5, read-out: Minimum Inhibitory Conc. (MIC)) was > 100 µg/mL and the MIC ([9]; IFO3762, pH 7, read-out: Minimum Inhibitory Conc. (MIC)) was 1.56 µg/mL (≈ 4.39 µM). The MIC ([9]; IFO3762, pH 9, read-out: Minimum Inhibitory Conc. (MIC)) was < 0.1 µg/mL, the MIC ([10]; IFO3989, pH 7, read-out: Minimum Inhibitory Conc. (MIC)) was 12.5 µg/mL (≈ 35.2 µM) and the MIC ([10]; IFO3989, pH 9, read-out: Minimum Inhibitory Conc. (MIC)) was 3.13 µg/mL (≈ 8.81 µM). For the same compound, the MIC ([10]; IFO3989, pH 5, broth dilution, read-out: Minimum Inhibitory Conc. (MIC)) was > 100 µg/mL, the MIC [11] was 0.78 µg/mL (≈ 2.19 µM) and the MIC [12] was 0.39 µg/mL (≈ 1.1 µM). It also gave an MIC [13] of 1.56 µg/mL (≈ 4.39 µM), an MIC [14] of 0.78 µg/mL (≈ 2.19 µM) and an MIC [15] of 0.78 µg/mL (≈ 2.19 µM). The MIC [16] was 0.78 µg/mL (≈ 2.19 µM), the MIC [17] was 0.78 µg/mL (≈ 2.19 µM) and the MIC [18] was 12.5 µg/mL (≈ 35.2 µM). For the same compound, the MIC [19] was 3.13 µg/mL (≈ 8.81 µM), the MIC [20] was 6.25 µg/mL (≈ 17.6 µM) and the MIC (Mycoplasma pulmonis M-53) was 0.39 µg/mL (≈ 1.1 µM). The MIC [21] was 100 µg/mL (≈ 281 µM).
